The subject of one experiment is HIV-1NL4-3. As to the kind of experiment: HIV-1 infectivity in TZM-bl cells (β-gal activity). Conditions: Human immunodeficiency virus 1, TZM-bl, 48 h, read-out: EC50 (β-gal). The class given is cell-based.
Experiment [1] addresses T1, interaction between Tat and cyclin T1 (Human immunodeficiency virus type 1 group M subtype B, UniProt P04608).
T1 construct: expressed in transfected cells; the methods paragraph b60 says 293T
As to the kind of experiment: Co-immunoprecipitation of Tat and cyclin T1. The class given is cell-based. Conditions: co-immunoprecipitation in transfected cells. As to the method: The co-immunoprecipitation assay was performed as previously described ([12], [58]). Briefly, 293T cells were transfected with Tat-expressing plasmids (pcDNA3–Flag–Tat86) using Lipofectamine 2000 (Invitrogen). After 48 h, the cells were lysed in an immunoprecipitation buffer [250 mM NaCl, 0.5% NP-40, 50 mM Tris-HCl (pH 7.5), 5 mM ethylenediaminetetraacetic acid, and protease/phosphatase inhibitor cocktail]. The cell lysates were subsequently incubated with an anti-Flag monoclonal antibody (M2; Sigma-Aldrich) at 4°C. After overnight incubation, the immune complex was then pulled down with protein A/G-agarose beads (Santa Cruz Biotechnology) and analyzed using western blotting.
Supplementary Figure S6. A. Quantitativereal-timePCRofHIV-1mRNAfromHIV-1 NL4-3-infectedA3.01cells treated oruntreatedwiththeindicatedcompoundswasperformedusingthe envprimerset,andlevelswerenormalizedtothoseof gapdh. Thedata
represent the relative fold change compared with DMSO treatment (n = 3).B. Effect of the compounds on NF-κB promoter activity assessed using a luciferase assay. […]
pCMV-R-Luc (200 ng). […] Theluciferase activity was determined using aDual-GloTMLuciferase assaykit (Promega).
The data normalized to the R-Luc activity are expressed as themean±SD (n = 3) of the relative fold activitycompared with the no-PMA(vehicle) treatment.C. […]

T1 sequence (P04608 whole entry): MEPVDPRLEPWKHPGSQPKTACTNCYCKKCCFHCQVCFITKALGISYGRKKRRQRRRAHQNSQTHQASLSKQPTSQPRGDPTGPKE
Procedure for HIV-1NL4-3: (C) TZM-bl cells were infected with the HIV-1NL4-3 strain at an MOI of 1 upon treatment of compounds. At 48 h after infection, the viral infectivity and cell viability were determined as described above (Fig. 1). […] (E) TZM-bl cells were infected with the HIV-1NL4-3 at an MOI of 1 upon compound 13. At 48 h after infection, the β-gal activity indicating viral infectivity was determined using the β-gal Enzyme Assay kit. […] (C and E) The dose-response curves show the relative activity compared with that of the DMSO vehicle (mean ± SD; n = 3).
The TZM-bl cells (also referred to as JC53BL-13) expressing human CD4, CXCR4, and CCR5 carrying the F-Luc and lacZ genes downstream of the HIV-1 LTR promoter ([60]) were used to determine the inhibitory effect of the compounds on HIV-1 infection, as previously described ([11], [12], [61]). In brief, 1 × 10^4 cells were cultured in 96-well plates for 24 h and subsequently treated with compounds at the indicated concentrations. […] After 48 h, the inhibitory effect of the compounds was determined using a Bright Glo luciferase assay kit (Promega) or β-Galactosidase Enzyme Assay kit (Promega). […] Cell viability was determined using the resazurin-based PrestoBlue Cell Viability Reagent (Thermo Fisher Scientific, Waltham, MA, USA) following the manufacturer’s instructions.

The EC50 is the concentration needed to bring the measured effect to its halfway point. For `Cc1[nH]c2ccc(-c3nnc(SCC(=O)N4CCCC4)o3)cc2c1C` [Compound 13, 2-((5-(2,3-Dimethyl-1H-indol-5-yl)-1,3,4-oxadiazol-2-yl)thio)-1-(pyrrolidin-1-yl)ethan-1-one], the EC50 in the experiment with HIV-1NL4-3 is 220 ± 30 nM. In addition, in experiment [1], the “change in interaction between Tat and cyclin T1” value is recorded as “no changes were observed”.
For the compound `Cc1[nH]c2ccc(-c3nnc(SCC(=O)N4CCCCC4)o3)cc2c1C` [Compound 9, 2-((5-(2,3-Dimethyl-1H-indol-5-yl)-1,3,4-oxadiazol-2-yl)thio)-1-(piperidin-1-yl)ethan-1-one], the “change in interaction between Tat and cyclin T1” value in experiment [1] is given as “no changes were observed”.

For the origin of these results see article PMC11459959, “Discovery of new acetamide derivatives of 5-indole-1,3,4-oxadiazol-2-thiol as inhibitors of HIV-1 Tat-mediated viral transcription” (Antimicrobial Agents and Chemotherapy, 2024).
